Results from patent publication US8063225B2, “Tricyclic compound derivatives useful in the treatment of neoplastic diseases, inflammatory disorders and immunomodulatory disorders” (Chembridge Corporation, priority 2006, dated 2011).

How the values were obtained:
H929 (multiple myeloma) = experiment: Cell proliferation inhibition, Cell Titer-Glo, H929; format: cell-based; settings: Homo sapiens, NCI-H929; cell proliferation assay, H929 cells
Procedure, shortened: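 Cells seeded at 2500-5000 per well with serially diluted compound for typically 3 days. Viable cells measured by ATP luminescence (Cell Titer-Glo); IC50 from proliferation-inhibition curves.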

InsR = target: T1, InsR (Homo sapiens, UniProt P06213); experiment: Tyrosine kinase assay (Kinase-Glo or AlphaScreen), InsR; settings: biochemical tyrosine kinase assay
T1 construct: 6×His- or GST-tagged kinase domain fragments of the corresponding RTKs expressed in baculovirus system; host or cells: baculovirus system
Procedure, shortened: (§1)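 Recombinant His- or GST-tagged kinase domains from baculovirus were assayed with poly(Glu-Tyr, 4:1) substrate and 10 μM ATP in Tris-HCl pH 7.5 with Mg2+/Mn2+. Kinase-Glo: 37° C for 60 minutes, residual ATP read by luminescence. IC50 from non-linear regression over eight concentrations, 1 nM to 20 μM.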

Ba/F3 = experiment: Cell proliferation inhibition, Cell Titer-Glo, Ba/F3; format: cell-based; settings: Mus musculus, BaF3; cell proliferation assay, Ba/F3 cells
Procedure, shortened: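 Ba/F3 cells were seeded at 2500-5000 cells per well in white, clear-bottomed 384-well culture plates and exposed to serial dilutions of test compounds for 3 days. Cell Titer-Glo Luminescent Cell Viability Assay (Promega) reagent, which measures total ATP as an indicator of metabolic activity, was added. Luminescence was read on a multiwell plate reader to derive IC50 values for inhibition of proliferation.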

Karpas-299 = experiment: Cell proliferation inhibition, Cell Titer-Glo, Karpas-299; format: cell-based; settings: Homo sapiens; cell proliferation assay, Karpas-299 cells
Procedure, shortened: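 Karpas 299 cells were seeded into white, clear-bottomed 384-well culture plates at 2500-5000 cells per well and exposed to serial dilutions of test compounds for about 3 days. Viable cell numbers were then measured with the Cell Titer-Glo Luminescent Cell Viability Assay (Promega), which detects total ATP, and IC50 values for proliferation inhibition were derived.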

IGF1R tyrosine kinase = target: T2, IGF1R tyrosine kinase (Homo sapiens, UniProt P08069); experiment: IGF1R tyrosine kinase assay (Kinase-Glo ATP depletion or PT66/PT100 AlphaScreen); settings: biochemical tyrosine kinase assay
T2 construct: 6×His- or GST-tagged kinase domain fragments of the corresponding RTKs expressed in baculovirus system; host or cells: baculovirus system
Procedure, shortened: as §1

T1 sequence (P06213 1023-1298 limits assumed, species assumed): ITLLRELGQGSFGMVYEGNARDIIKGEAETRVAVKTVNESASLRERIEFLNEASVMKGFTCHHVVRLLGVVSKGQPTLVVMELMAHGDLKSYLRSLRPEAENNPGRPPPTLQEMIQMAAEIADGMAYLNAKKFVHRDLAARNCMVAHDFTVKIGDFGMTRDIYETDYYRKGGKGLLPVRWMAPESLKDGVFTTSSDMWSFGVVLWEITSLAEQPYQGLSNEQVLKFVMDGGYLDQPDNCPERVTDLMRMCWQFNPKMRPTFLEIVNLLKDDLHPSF
T2 sequence (P08069 999-1274 limits assumed): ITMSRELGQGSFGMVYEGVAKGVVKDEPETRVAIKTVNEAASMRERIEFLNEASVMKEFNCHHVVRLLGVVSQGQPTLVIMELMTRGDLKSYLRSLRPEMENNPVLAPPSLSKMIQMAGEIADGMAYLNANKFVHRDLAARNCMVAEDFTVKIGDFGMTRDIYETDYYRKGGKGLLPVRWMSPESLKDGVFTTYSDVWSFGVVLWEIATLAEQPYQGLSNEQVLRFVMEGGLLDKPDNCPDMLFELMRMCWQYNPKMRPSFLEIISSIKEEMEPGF

| IC50 (H929 (multiple myeloma)) | IC50 (InsR) | IC50 (Ba/F3) | IC50 (Karpas-299) | IC50 (IGF1R tyrosine kinase) | SMILES |
| --- | --- | --- | --- | --- | --- |
| 5 to 15 µM | < 0.5 µM | > 15 µM | 5 to 15 µM | < 0.5 µM | CN1CCC(N2C(=O)c3cc4nc(-c5c(NC[C@@H](O)COc6cccc7ccccc67)cc[nH]c5=O)[nH]c4cc3C2=O)CC1 [compound 87] |
| 0.5 to 5 µM | 0.5 to 5 µM | > 15 µM | > 15 µM | 0.5 to 5 µM | Cc1cc(C)c(OC[C@H](O)CNc2cc[nH]c(=O)c2-c2nc3cc4c(cc3[nH]2)C(=O)N(C2CCN(C)CC2)C4=O)c(CS(C)(=O)=O)c1 [compound 84] |
| 5 to 15 µM | < 0.5 µM | > 15 µM | > 15 µM | < 0.5 µM | Cc1cc(C)c(OC[C@H](O)CNc2cc[nH]c(=O)c2-c2nc3cc4c(cc3[nH]2)C(=O)N(C2CCN(C)CC2)C4=O)c(C)c1 [compound 98] |
| 0.5 to 5 µM | 0.5 to 5 µM | > 15 µM | > 15 µM | 5 to 15 µM | Cc1ccc2c(ccn2C[C@H](O)CNc2cc[nH]c(=O)c2-c2nc3cc4c(cc3[nH]2)C(=O)N(C2CCN(C)CC2)C4=O)c1 [compound 131] |

| SMILES | IC50 (H929 (multiple myeloma)) | IC50 (InsR) | IC50 (Ba/F3) | IC50 (Karpas-299) | IC50 (IGF1R tyrosine kinase) |
| --- | --- | --- | --- | --- | --- |
| O=C1c2cc3nc(-c4c(NC[C@@H](O)c5cccc(Cl)c5)cc[nH]c4=O)[nH]c3cc2C(=O)N1[C@H]1CN2CCC1CC2 [compound 34] | 5 to 15 µM | 0.5 to 5 µM | > 15 µM | > 15 µM | < 0.5 µM |
